Assay results from PubChem BioAssay (NCI).
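In this assay, cells in 96-well plates receive the compound at five concentrations for 48 hours. Endpoints are linearly interpolated between the surrounding concentrations. GI50 is the concentration that inhibits growth by half. TGI marks complete inhibition of growth.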

How the values were obtained:
Experiment in all cases: NCI anticancer screen, dose series, 48 h
U251 CNS = tested on: U251 CNS
LOX IMVI melanoma = tested on: LOX IMVI melanoma
TK-10 renal = tested on: TK-10 renal
HT29 colon = tested on: HT29 colon
CAKI-1 renal = tested on: CAKI-1 renal
COLO 205 colon = tested on: COLO 205 colon
SK-OV-3 ovarian = tested on: SK-OV-3 ovarian
HCT-116 colon = tested on: HCT-116 colon
HS 578T breast = tested on: HS 578T breast
SF-295 CNS = tested on: SF-295 CNS
MALME-3M melanoma = tested on: MALME-3M melanoma
HOP-62 NSCLC = tested on: HOP-62 NSCLC
MOLT-4 leukemia = tested on: MOLT-4 leukemia
SF-539 CNS = tested on: SF-539 CNS
OVCAR-5 ovarian = tested on: OVCAR-5 ovarian
RPMI-8226 leukemia = tested on: RPMI-8226 leukemia
SR leukemia = tested on: SR leukemia
SK-MEL-5 melanoma = tested on: SK-MEL-5 melanoma
T-47D breast = tested on: T-47D breast
SNB-75 CNS = tested on: SNB-75 CNS
HOP-92 NSCLC = tested on: HOP-92 NSCLC
786-0 renal = tested on: 786-0 renal
IGROV1 ovarian = tested on: IGROV1 ovarian
HCT-15 colon = tested on: HCT-15 colon
MDA-MB-435 = tested on: MDA-MB-435
ACHN renal = tested on: ACHN renal
CCRF-CEM leukemia = tested on: CCRF-CEM leukemia
MDA-MB-231 breast = tested on: MDA-MB-231 breast

Q: What does the source list for CNC(=O)c1cc(-n2ccc3cc(NC(=O)Nc4ccc(N5CCN(C)CC5)c(C(F)(F)F)c4)ccc32)ccn1?
A: GI50 (U251 CNS): 2.43 µM; TGI (U251 CNS): 5.48 µM; GI50 (LOX IMVI melanoma): 2.68 µM; TGI (LOX IMVI melanoma): 5.95 µM; GI50 (TK-10 renal): 4.39 µM; TGI (TK-10 renal): 8.16 µM; GI50 (HT29 colon): 0.938 µM; TGI (HT29 colon): 3.59 µM; GI50 (CAKI-1 renal): 4.15 µM; TGI (CAKI-1 renal): 8.3 µM; GI50 (COLO 205 colon): 4.21 µM; TGI (COLO 205 colon): 8.75 µM; GI50 (SK-OV-3 ovarian): 4.21 µM; TGI (SK-OV-3 ovarian): 7.75 µM; GI50 (HCT-116 colon): 1.7 µM; TGI (HCT-116 colon): 4.87 µM; GI50 (HS 578T breast): 2.03 µM; TGI (HS 578T breast): 7.26 µM; GI50 (SF-295 CNS): 0.492 µM; TGI (SF-295 CNS): 1.11 µM; GI50 (MALME-3M melanoma): 3.2 µM; TGI (MALME-3M melanoma): 6.71 µM; GI50 (HOP-62 NSCLC): 3.41 µM; TGI (HOP-62 NSCLC): 7.46 µM; GI50 (MOLT-4 leukemia): 0.744 µM; TGI (MOLT-4 leukemia): 2.91 µM; GI50 (SF-539 CNS): 1.2 µM; TGI (SF-539 CNS): 4.53 µM; GI50 (OVCAR-5 ovarian): 3.57 µM; TGI (OVCAR-5 ovarian): 7.74 µM; GI50 (RPMI-8226 leukemia): 0.886 µM; TGI (RPMI-8226 leukemia): 4.01 µM; GI50 (SR leukemia): 0.479 µM; TGI (SR leukemia): 2.85 µM; GI50 (SK-MEL-5 melanoma): 4.28 µM; TGI (SK-MEL-5 melanoma): 7.79 µM; GI50 (T-47D breast): 3.65 µM; TGI (T-47D breast): 9.08 µM; GI50 (SNB-75 CNS): 1.2 µM; TGI (SNB-75 CNS): 4.98 µM; GI50 (HOP-92 NSCLC): 1.22 µM; TGI (HOP-92 NSCLC): 4.68 µM; GI50 (786-0 renal): 2.03 µM; TGI (786-0 renal): 5.31 µM; GI50 (IGROV1 ovarian): 4.12 µM; TGI (IGROV1 ovarian): 8.44 µM; GI50 (HCT-15 colon): 0.796 µM; TGI (HCT-15 colon): 3.48 µM; GI50 (MDA-MB-435): 3.67 µM; TGI (MDA-MB-435): 7.17 µM; GI50 (ACHN renal): 3.85 µM; TGI (ACHN renal): 7.22 µM; GI50 (CCRF-CEM leukemia): 2.54 µM; TGI (CCRF-CEM leukemia): 16 µM; GI50 (MDA-MB-231 breast): 3.48 µM; TGI (MDA-MB-231 breast): 7.81 µM
